This is an account of results in US9309242B2, “Substituted pyrido[2,3-b]pyrazines as FGFR kinase inhibitors” (priority 2011, dated 2016).

Where only a bound is given, the exact number is not on record here.

For assay [1], the target named is T1, Ba/F3-FGFR1-transfected cells (Homo sapiens, UniProt P11362).
T1 construct: BAF3-FGFR1 (MIN IL3) pIC50; other: minus IL3
The assay is described as follows: Ba/F3-FGFR1 (minus IL3) cellular proliferation assay, Alamar Blue. The assay is classed as cell-based. On the procedure: (§1) Ba/F3-FGFR1 (Minus IL3 or Plus IL3) (Cellular Proliferation Assay)
(§2) In a 384 well plate, 100 nl of compound dilution in DMSO was sprayed before adding 50 μl cell culture medium (phenol red free RPMI-1640, 10% FBS, 2 mM L-Glutamine and 50 μg/ml Gentamycin) containing 20000 cells per well of Ba/F3-FGFR1-transfected cells. Cells were put in an incubator at 37° C. and 5% CO2. After 24 hours, 10 μl of Alamar Blue solution (0.5 mM K3Fe(CN)6, 0.5 mM K4Fe(CN)6, 0.15 mM Resazurin and 100 mM Phosphate Buffer) was added to the wells, incubated for 4 hours at 37° C. and 5% CO2 before RFU's (Relative Fluorescence Units) (ex. 540 nm., em. 590 nm.) were measured in a fluororescence plate reader.
For orientation: Alamar Blue is a resazurin reagent that responds to reducing activity.

Assay [2] has as its system Ba/F3-KDR-transfected cells. The assay can be described thus: Ba/F3-KDR (plus IL3) cellular proliferation assay, counterscreen with 10 ng/ml murine IL3. The note with it: plus IL3 (10 ng/ml murine IL3, counterscreen). The assay is classed as cell-based. On the procedure: (§3) Ba/F3-KDR (Minus IL3 or Plus IL3) (Cellular Proliferation Assay)
as §2, with “n1” for “nl”, “Ba/F3-KDR-transfected” for “Ba/F3-FGFR1-transfected”
(§4) As a counterscreen the same experiment was performed in the presence of 10 ng/ml murine IL3.
Background: Counterscreens check selectivity or assay interference.

Assay [3] addresses FGFR2 (h) (Homo sapiens, UniProt P21802). The assay is described as follows: FGFR2 (enzymatic assay), TR-FRET. The assay is classed as biochemical. The note with it: enzymatic assay; average values if tested multiple times; read-out: FGFR 2 pIC50 (converted). On the procedure: In a final reaction volume of 30 μL, FGFR2 (h) (150 ng/ml) was incubated with 50 mM HEPES pH 7.5, 6 mM MnCl2, 1 mM DTT, 0.1 mM Na3VO4, 0.01% Triton-X-100, 500 nM Btn-Flt3 and 0.4 μM ATP in the presence of compound (1% DMSO final).
(In general: Time-resolved FRET reads energy transfer from a long-lived donor to a nearby acceptor.)

For assay [4], the target named is FGFR3 (h) (Homo sapiens, UniProt P22607). The assay is described as follows: FGFR3 (enzymatic assay), TR-FRET. The assay is classed as biochemical. As to conditions: average values if tested multiple times, read-out: FGFR 3 pIC50 (converted). The text has this:
Time-Resolved Fluorescence Resonance Energy Transfer (TR-FRET) signal (ex340 nm.

Assay [5] has as its target T2, Ba/F3-KDR-transfected cells (Homo sapiens, UniProt P35968).
T2 construct: BAF3-KDR (MIN IL3) pIC50; other: minus IL3
The assay can be described thus: Ba/F3-KDR (minus IL3) cellular proliferation assay, Alamar Blue. The assay is classed as cell-based. As for the experimental part:
as §3
as §2, with “n1” for “nl”, “Ba/F3-KDR-transfected” for “Ba/F3-FGFR1-transfected”, “reader. […]” for “reader.”

In assay [6] the target is KDR (h) (Homo sapiens, UniProt P35968). The assay can be described thus: KDR (VEGFR2) (enzymatic assay), TR-FRET. The assay is classed as biochemical. The note with it: average values if tested multiple times, read-out: VEGFR 2 (KDR) pIC50 (converted). As for the experimental part:
KDR (VEGFR2) (Enzymatic Assay)
In a final reaction volume of 30 μL, KDR (h) (150 ng/ml) was incubated with 50 mM HEPES pH 7.5, 6 mM MnCl2, 1 mM DTT, 0.1 mM Na3VO4, 0.01% Triton-X-100, 500 nM Btn-Flt3 and 3 μM ATP in the presence of compound (1% DMSO final). After incubation for 120 minutes at room temperature the reaction was stopped with 2.27 nM EU-anti P-Tyr, 7 mM EDTA, 31.25 nM SA-XL-665 and 0.02% BSA which was present for 60 minutes at room temperature. Time-Resolved Fluorescence Resonance Energy Transfer (TR-FRET) signal (ex340 nm. Em 620 nm, em 655 nm) was measured afterwards and results are expressed in RFU (Relative Fluorescence Units).

Assay [7] deals with FGFR1 (h) (Homo sapiens, UniProt P11362). The assay can be described thus: FGFR1 (enzymatic assay), TR-FRET. The note with it: average values if tested multiple times, read-out: FGFR 1 pIC50 (converted). The assay is classed as biochemical.
Assay [8] relates to Ba/F3-FGFR1-transfected cells. The assay is described as follows: Ba/F3-FGFR1 (plus IL3) cellular proliferation assay, counterscreen with 10 ng/ml murine IL3. The assay is classed as cell-based. As to conditions: plus IL3 (10 ng/ml murine IL3, counterscreen); for IC50: read-out: BAF3-FGFR1 (PLUS IL3) pIC50 (converted). As for the experimental part:
as §1, §2, §4

Assay [9] has as its target T3, Ba/F3-FGFR3-transfected cells (Homo sapiens, UniProt P22607).
T3 construct: BAF3-FGFR3 (MIN IL3) pIC50; other: minus IL3
The assay can be described thus: Ba/F3-FGFR3 (minus IL3) cellular proliferation assay, Alamar Blue. The assay is classed as cell-based. On the procedure: (§5) Ba/F3-FGFR3 (Minus IL3 or Plus IL3) (Cellular Proliferation Assay)
as §2, with “Ba/F3-FGFR3-transfected” for “Ba/F3-FGFR1-transfected”, “reader. […]” for “reader.”

In assay [10] the test system is Ba/F3-FGFR3-transfected cells. The assay is described as follows: Ba/F3-FGFR3 (plus IL3) cellular proliferation assay, counterscreen with 10 ng/ml murine IL3. The assay is classed as cell-based. As to conditions: plus IL3 (10 ng/ml murine IL3, counterscreen); for IC50: read-out: BAF3-FGFR3 (PLUS IL3) pIC50 (converted). On the procedure:
as §5
as §2, with “Ba/F3-FGFR3-transfected” for “Ba/F3-FGFR1-transfected”
as §4

Assay [11] has as its target FGFR4 (h) (Homo sapiens, UniProt P22455). The assay can be described thus: FGFR4 (enzymatic assay), TR-FRET. The assay is classed as biochemical. The note with it: FGFR 4 pIC50, enzymatic assay; average values if tested multiple times.
The target in assay [12] is Ba/F3-FGFR4-transfected cells (Homo sapiens, UniProt P22455). The assay can be described thus: Ba/F3-FGFR4 cellular proliferation assay, Alamar Blue. The assay is classed as cell-based. As for the experimental part:
Ba/F3-FGFR4 (Cellular Proliferation Assay)
as §2, with “n1” for “nl”, “Ba/F3-FGFR4-transfected” for “Ba/F3-FGFR1-transfected”

FGFR2 (h), sequence (P21802 22-821): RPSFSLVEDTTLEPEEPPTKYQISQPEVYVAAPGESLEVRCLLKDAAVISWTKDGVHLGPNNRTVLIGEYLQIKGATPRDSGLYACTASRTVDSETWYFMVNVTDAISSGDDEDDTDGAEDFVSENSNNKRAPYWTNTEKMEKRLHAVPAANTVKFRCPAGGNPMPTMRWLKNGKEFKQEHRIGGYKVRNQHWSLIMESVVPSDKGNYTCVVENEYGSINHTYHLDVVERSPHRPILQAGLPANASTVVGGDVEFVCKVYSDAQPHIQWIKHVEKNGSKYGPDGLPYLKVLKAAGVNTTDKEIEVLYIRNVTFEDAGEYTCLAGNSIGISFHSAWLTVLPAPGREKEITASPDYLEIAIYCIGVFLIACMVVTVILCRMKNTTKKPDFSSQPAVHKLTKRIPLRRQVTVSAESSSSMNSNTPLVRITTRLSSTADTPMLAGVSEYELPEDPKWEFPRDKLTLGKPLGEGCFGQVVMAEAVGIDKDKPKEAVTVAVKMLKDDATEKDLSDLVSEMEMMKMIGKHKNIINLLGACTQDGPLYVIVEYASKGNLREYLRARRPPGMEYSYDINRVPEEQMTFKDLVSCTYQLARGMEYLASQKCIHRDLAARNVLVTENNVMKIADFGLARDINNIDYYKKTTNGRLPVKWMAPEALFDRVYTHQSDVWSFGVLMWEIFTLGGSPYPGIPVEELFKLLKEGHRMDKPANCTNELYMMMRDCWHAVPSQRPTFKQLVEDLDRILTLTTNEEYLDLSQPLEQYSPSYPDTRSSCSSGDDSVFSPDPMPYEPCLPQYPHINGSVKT
T2 sequence (P35968 whole entry, change not shown): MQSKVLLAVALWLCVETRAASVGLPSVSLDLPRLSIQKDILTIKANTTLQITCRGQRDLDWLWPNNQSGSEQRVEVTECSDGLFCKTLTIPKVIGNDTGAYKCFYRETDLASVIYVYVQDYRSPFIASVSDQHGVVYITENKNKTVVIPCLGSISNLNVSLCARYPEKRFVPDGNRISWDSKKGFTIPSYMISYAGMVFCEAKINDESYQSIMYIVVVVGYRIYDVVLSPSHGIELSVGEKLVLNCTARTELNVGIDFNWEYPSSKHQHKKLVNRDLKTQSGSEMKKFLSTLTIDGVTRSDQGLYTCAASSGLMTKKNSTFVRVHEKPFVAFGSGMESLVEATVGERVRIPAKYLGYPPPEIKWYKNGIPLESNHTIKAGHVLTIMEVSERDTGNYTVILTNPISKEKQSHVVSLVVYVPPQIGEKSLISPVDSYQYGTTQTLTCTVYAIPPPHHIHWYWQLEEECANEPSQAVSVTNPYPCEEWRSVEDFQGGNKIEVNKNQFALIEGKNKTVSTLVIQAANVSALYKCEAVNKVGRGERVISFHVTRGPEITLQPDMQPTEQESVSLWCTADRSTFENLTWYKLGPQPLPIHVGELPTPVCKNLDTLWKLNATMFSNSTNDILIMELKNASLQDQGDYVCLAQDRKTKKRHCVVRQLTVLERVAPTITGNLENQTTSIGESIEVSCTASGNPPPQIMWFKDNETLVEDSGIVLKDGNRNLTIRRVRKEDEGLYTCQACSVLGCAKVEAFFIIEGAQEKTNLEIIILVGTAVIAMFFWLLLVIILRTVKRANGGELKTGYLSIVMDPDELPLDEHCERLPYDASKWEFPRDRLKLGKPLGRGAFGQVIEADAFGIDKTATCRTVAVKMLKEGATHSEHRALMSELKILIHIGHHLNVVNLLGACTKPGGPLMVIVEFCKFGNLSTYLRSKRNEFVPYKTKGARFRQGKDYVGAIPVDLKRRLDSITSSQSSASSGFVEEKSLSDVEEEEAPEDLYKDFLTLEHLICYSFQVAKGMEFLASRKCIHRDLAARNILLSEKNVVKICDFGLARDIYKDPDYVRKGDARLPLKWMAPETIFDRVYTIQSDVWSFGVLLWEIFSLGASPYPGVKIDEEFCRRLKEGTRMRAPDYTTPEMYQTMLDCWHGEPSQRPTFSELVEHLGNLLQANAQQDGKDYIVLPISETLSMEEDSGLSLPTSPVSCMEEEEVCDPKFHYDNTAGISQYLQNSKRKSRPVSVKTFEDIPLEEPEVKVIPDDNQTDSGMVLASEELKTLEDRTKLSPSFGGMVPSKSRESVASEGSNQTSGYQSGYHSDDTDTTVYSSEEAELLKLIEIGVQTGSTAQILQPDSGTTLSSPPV
FGFR4 (h), sequence (P22455 22-802): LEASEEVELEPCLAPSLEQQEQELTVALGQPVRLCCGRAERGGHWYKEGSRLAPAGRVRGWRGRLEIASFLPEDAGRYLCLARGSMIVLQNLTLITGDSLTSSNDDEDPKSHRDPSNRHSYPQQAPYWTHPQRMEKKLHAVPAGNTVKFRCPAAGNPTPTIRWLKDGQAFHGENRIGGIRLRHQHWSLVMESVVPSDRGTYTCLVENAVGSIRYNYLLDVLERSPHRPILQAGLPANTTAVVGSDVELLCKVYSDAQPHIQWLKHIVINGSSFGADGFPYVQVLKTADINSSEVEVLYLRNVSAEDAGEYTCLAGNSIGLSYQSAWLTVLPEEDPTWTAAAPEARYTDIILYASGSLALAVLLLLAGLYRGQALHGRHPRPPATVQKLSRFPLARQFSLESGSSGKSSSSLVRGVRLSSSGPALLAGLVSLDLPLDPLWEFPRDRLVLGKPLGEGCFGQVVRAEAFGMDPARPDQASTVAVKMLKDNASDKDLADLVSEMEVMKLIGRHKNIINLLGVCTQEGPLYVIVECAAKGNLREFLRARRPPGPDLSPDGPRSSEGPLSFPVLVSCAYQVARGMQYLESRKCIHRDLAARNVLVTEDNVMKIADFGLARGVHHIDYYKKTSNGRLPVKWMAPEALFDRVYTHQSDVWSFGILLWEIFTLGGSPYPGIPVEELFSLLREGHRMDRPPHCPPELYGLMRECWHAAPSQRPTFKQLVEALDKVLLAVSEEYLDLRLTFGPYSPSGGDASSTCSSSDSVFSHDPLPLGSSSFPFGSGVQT
T3 sequence (P22607 whole entry, change not shown): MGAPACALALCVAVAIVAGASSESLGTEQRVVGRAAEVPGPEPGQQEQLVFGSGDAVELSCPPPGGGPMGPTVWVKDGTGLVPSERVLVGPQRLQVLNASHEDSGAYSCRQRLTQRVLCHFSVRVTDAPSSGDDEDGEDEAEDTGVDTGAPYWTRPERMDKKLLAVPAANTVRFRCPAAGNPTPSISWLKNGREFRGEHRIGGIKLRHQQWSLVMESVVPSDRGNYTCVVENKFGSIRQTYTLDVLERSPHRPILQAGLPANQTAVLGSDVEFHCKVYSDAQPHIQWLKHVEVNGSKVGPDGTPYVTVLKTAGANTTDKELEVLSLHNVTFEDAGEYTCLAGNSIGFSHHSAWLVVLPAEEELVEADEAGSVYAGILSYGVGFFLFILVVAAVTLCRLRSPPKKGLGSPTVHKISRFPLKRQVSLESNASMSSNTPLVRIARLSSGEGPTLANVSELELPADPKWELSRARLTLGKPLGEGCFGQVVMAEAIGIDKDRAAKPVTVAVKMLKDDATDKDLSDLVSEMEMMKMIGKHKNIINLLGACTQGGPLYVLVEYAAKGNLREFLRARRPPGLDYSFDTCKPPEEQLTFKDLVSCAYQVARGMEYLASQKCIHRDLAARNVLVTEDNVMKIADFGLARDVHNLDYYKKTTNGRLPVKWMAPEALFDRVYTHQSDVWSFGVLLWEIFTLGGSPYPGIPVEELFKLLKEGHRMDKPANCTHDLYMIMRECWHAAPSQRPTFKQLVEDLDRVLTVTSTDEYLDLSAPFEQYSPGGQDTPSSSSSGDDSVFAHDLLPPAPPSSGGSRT
FGFR3 (h), sequence (P22607 23-806): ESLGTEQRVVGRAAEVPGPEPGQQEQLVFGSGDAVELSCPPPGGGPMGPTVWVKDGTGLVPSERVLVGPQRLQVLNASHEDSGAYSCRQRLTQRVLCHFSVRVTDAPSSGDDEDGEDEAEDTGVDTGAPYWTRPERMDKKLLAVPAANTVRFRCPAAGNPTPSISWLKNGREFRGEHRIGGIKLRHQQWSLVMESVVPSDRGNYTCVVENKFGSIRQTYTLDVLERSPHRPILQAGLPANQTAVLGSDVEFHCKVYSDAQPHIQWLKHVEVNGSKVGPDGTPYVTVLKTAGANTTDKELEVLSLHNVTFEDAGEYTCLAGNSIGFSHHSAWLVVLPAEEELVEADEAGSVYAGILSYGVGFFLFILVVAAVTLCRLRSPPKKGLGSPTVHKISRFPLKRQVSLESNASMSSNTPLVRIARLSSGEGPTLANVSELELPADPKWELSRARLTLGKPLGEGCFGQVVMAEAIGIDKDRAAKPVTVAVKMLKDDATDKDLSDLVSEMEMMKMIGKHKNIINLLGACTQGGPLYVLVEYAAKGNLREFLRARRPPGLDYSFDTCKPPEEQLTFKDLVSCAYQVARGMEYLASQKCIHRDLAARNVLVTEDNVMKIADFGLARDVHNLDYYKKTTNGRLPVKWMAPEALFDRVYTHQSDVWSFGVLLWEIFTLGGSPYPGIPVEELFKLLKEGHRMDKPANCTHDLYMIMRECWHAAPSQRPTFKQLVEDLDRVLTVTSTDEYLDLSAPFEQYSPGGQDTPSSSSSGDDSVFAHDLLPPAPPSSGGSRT

For `COc1cc(OC)cc(N(CC(O)C(F)(F)F)c2ccc3ncc(-c4cnn(C)c4)nc3n2)c1` (single isomer, unassigned) [Compound 34], in [1], the “BAF3-FGFR1 (MIN IL3) pIC50” value was found to be 7.18. Besides, the “BAF3-KDR (PLUS IL3) pIC50” value in [2] is on record as less than 5. Moreover, the IC50 is 4.57 nM in assay [3]; 1.35 nM in [4]; 331 nM in assay [6]; 3.55 nM in assay [7]; 7.08 nM in [11]. Further, the “BAF3-KDR (MIN IL3) pIC50” value in assay [5] was less than 5. For the same molecule, in [8], the “BAF3-FGFR1 (PLUS IL3) pIC50” value is less than 5. Further, in [9], the “BAF3-FGFR3 (MIN IL3) pIC50” value is recorded as 6.97. In [10], the “BAF3-FGFR3 (PLUS IL3) pIC50” value was less than 5. For the same molecule, the “BAF3-FGFR4 pIC50” value in assay [12] is listed as 6.64.
For the molecule `COCC(O)CN(c1ccc2ncc(-c3cnn(C)c3)nc2n1)c1cc(OC)cc(OC)c1F` (single isomer, unassigned) [Compound 59], the “BAF3-FGFR1 (MIN IL3) pIC50” value in assay [1] is listed as 7.60. For the same molecule, in [2], the “BAF3-KDR (PLUS IL3) pIC50” value is listed as less than 5. In addition, the IC50 was 1.82 nM in [3]; 1.23 nM in [4]; 25.1 nM in [6]; approximately 1.78 nM in [7]; 2.19 nM in assay [11]. The “BAF3-KDR (MIN IL3) pIC50” value in [5] is reported as 5.73. Further, in assay [8], the “BAF3-FGFR1 (PLUS IL3) pIC50” value is less than 5. Besides, in assay [9], the “BAF3-FGFR3 (MIN IL3) pIC50” value amounted to 7.71. Further, in [10], the “BAF3-FGFR3 (PLUS IL3) pIC50” value is reported as less than 5. Further, the “BAF3-FGFR4 pIC50” value in [12] came to 7.19.
For the molecule `COc1cc(OC)c(F)c(N(CC(O)COC(C)C)c2ccc3ncc(-c4cnn(C)c4)nc3n2)c1` (single isomer, unassigned) [Compound 78], in assay [1], the “BAF3-FGFR1 (MIN IL3) pIC50” value is reported as 7.59. In assay [2], the “BAF3-KDR (PLUS IL3) pIC50” value was less than 5. Further, the IC50 in assay [3] was 2.75 nM; in assay [4] it was 2.34 nM; in assay [6], 15.1 nM; in assay [7], 2.4 nM; in assay [11], 2.51 nM. Further, the “BAF3-KDR (MIN IL3) pIC50” value in [5] was found to be 6.13. Further, the “BAF3-FGFR1 (PLUS IL3) pIC50” value in assay [8] was less than 5. The “BAF3-FGFR3 (MIN IL3) pIC50” value in assay [9] was 7.70. In addition, the “BAF3-FGFR3 (PLUS IL3) pIC50” value in assay [10] was less than 5. Besides, the “BAF3-FGFR4 pIC50” value in assay [12] is given as 7.03.
Consider `COc1cc(OC)c(F)c(N(CC(O)COC(C)C)c2ccc3ncc(-c4cnn(C)c4)nc3n2)c1` (single isomer, unassigned) [Compound 79], for which the “BAF3-FGFR1 (MIN IL3) pIC50” value in assay [1] was determined as 7.58. Further, the “BAF3-KDR (PLUS IL3) pIC50” value in [2] was less than 5. The IC50 in assay [3] is 2.95 nM; in assay [4], 1.66 nM; in [6] it was 25.7 nM; in assay [7] it was 2.34 nM; in assay [11], 2 nM. The “BAF3-KDR (MIN IL3) pIC50” value in assay [5] is 5.73. Besides, in [8], the “BAF3-FGFR1 (PLUS IL3) pIC50” value was less than 5. Further, the “BAF3-FGFR3 (MIN IL3) pIC50” value in assay [9] is 7.63. Further, the “BAF3-FGFR3 (PLUS IL3) pIC50” value in assay [10] is listed as less than 5. In addition, the “BAF3-FGFR4 pIC50” value in [12] was found to be 7.28.
With `COc1cc(OC)cc(N(CCO)c2ccc3ncc(-c4cnn(C)c4)nc3n2)c1` [Compound 21], in assay [1], the “BAF3-FGFR1 (MIN IL3) pIC50” value worked out at 7.3. Moreover, the IC50 was 3.98 nM in assay [3]; 0.794 nM in assay [4]; 63.1 nM in [6]; 2 nM in assay [7]; more than 10000 nM in [8]; more than 10000 nM in assay [10]. Also, the IC50 in assay [11] was 5.01 nM. Besides, the “BAF3-KDR (MIN IL3) pIC50” value in [5] worked out at 5.6. Also, the “BAF3-FGFR3 (MIN IL3) pIC50” value in [9] amounted to 7.3. For the same molecule, the “BAF3-FGFR4 pIC50” value in assay [12] was determined as 6.69.
As to `COc1cc(OC)c(F)c(N(Cc2ncc[nH]2)c2ccc3ncc(-c4cnn(C)c4)nc3n2)c1F` [Compound 25], the “BAF3-FGFR1 (MIN IL3) pIC50” value in assay [1] stood at 8.8. For the same molecule, the IC50 in assay [3] was 14.1 nM; in assay [4], 2.51 nM; in [6] it was 79.4 nM; in assay [7] it was 7.94 nM; in assay [8], 6310 nM; in assay [10], more than 10000 nM. Besides, the IC50 in [11] was 3.55 nM. Also, the “BAF3-KDR (MIN IL3) pIC50” value in [5] is listed as 6.7. In [9], the “BAF3-FGFR3 (MIN IL3) pIC50” value was found to be 8.5. The “BAF3-FGFR4 pIC50” value in [12] is reported as approximately 8.23.
